# Assay: solubility
# Format: physicochemical
# Conditions: syrup product of Example 2
structure (smiles),measurement,value
"O=P(O)(O)CC(CO)(CO)CO [Phosphonic Acid, 3-hydroxy-2,2-bis(hydroxymethyl)propylphosphonic acid]",solubility,soluble in water and highly polar organic solvents

# — US4089893A, “2,2,2-Tris(hydroxymethyl)ethylphosponic acid and method for its preparation” (Borg-Warner Corporation, priority 1976, dated 1978)
